From patent US9682960B2 (priority 2013, dated 2017)
Several values for one entry are separate records, joined by “and”; a condition that tells them apart may be missing. Equal values may be shown once. Read-outs that look alike come from different tables or passages of the source.

Assays:
Human Androgen Receptor = Human Androgen Receptor (Homo sapiens (Human), UniProt P10275); assay: Androgen receptor assay: [3H]R1881 displacement, cytosol of HEK-293 cells transfected with hAR (hydroxylapatite assay); type: binding; conditions: for Human Androgen Receptor Binding RBA (%) R1881 = 100: relative binding affinity
Rat Androgen Receptor = Rat Androgen Receptor (Rattus norvegicus (Rat), UniProt P15207); assay: Androgen receptor assay: [3H]R1881 displacement, rat prostate cytosol; type: binding
Procedure: On the morning of the binding assay, ventral prostates collected from 24 h-gonadectomized rats were homogenized in buffer A (1 g of tissue in 5 mL) and the homogenate was centrifuged as described above.
Androgen binding is measured using the hydroxylapatite (HAP) assay. In brief, the radioactive steroid [^3H]R1881 solubilized in ethanol is diluted with buffer B (10 mM Tris-HCl, 1.5 mM EDTA disodium salt, 10 mM α-monothioglycerol, pH 7.4). Aliquots of the cell or prostate cytosol preparation (0.1 ml) are then incubated with 5 nM [^3H]R1881 (0.1 ml, ˜100 000 cpm) in the presence or absence of the indicated concentrations of unlabeled compounds (0.1 ml, prepared in buffer B containing 30% ethanol) for 16-18 h at 0-4° C. Triamcinolone acetonide (TAC; 100 nM) is added to mask progesterone receptors. Unbound steroids are separated by incubation for 40 min at 0-4° C. with 0.3 ml HAP prepared in buffer P (50 mM Tris-HCl, 10 mM KH2PO4, pH 7.4). After incubation with HAP and 10 min of centrifugation at 1000×g, the pellet is washed 3 times with 1 ml of buffer P. Thereafter, the radioactivity is extracted from the pellet by incubation at room temperature for 60 min with 1 ml of ethanol. After centrifugation, the supernatant is decanted into a scintillation vial and the pellet is extracted again with ethanol. After the addition of scintillation liquid, the radioactivity is measured in a liquid scintillation counter.
Relative binding affinity (RBA) was calculated by the following formula: RBA (%) [IC50(R1881)/IC50 (compound)]×100 B—In Vitro Assay of Androgenic/Antiandrogenic Activity

[1] = tested on: Shionogi mouse mammary carcinoma cells; assay: In vitro androgenic/antiandrogenic activity: proliferation of Shionogi cells with or without DHT; type: cell-based; conditions: for IC50: Mus musculus, read-out: Shionogi Antiandrogenic Activity IC50, DHT (0.3 nM)-stimulated cell number
[2] = tested on: PSA levels in human prostatic carcinoma LNCaP cells; assay: Prostate specific antigen (PSA) in LNCaP cells with or without R1881; type: cell-based
Procedure: LNCaP cells were cultured as previously described (Qi et al. 2001). In brief, the LNCaP cells were cultured for 6 days in 1.0 ml RPMI 1640 supplemented with hormone-depleted 0.25% FCS before each experiment. At the start of the experiment, half of the medium (0.5 ml) was replaced with 0.5 ml of identical medium containing the appropriate concentrations of tested compounds, in the presence or absence of 1.0 nM of R1881. After 72 h of incubation of LNCaP cells with compounds, 0.5 ml of culture medium was removed for PSA determination. PSA levels were measured using the PSA [^125I] IRMA KIT (REF: RK-10CT) from Izotop (Institute of Isotopes Ltd, Budapest, Hungary).

[3] = Oral absorption, Experiment 2: plasma, intraprostatic and intramuscular concentrations after 0.5 mg EM-9150/animal in castrated male rats; type: in vivo; conditions: Sprague-Dawley, rat, po, 0.5 mg/animal
Procedure: Castrated male Sprague-Dawley rats (Crl:CD(SD)Br) weighing 275-375 g were used for pharmacokinetic studies. Animals were fasted (access to water only) from around 16 h00 the afternoon prior to the dosing day.
Blood samples (˜0.5 mL/timepoint) were collected by jugular venipuncture on animals under isoflurane anesthesia at 1, 2, 3, 4, 7 and 24 h post-dosing. Blood samples were put into tubes containing EDTA(K3) as anticoagulant and centrifuged at 4° C. for 10 min at 1700-2400 g. The resulting plasma was frozen on dry ice and kept at −80° C. pending analysis. […] Prostates and bulbocavernosus muscles were frozen in liquid nitrogen and kept at −80° C. until being used. A buffer and an ethanol-acetone solution were added to the tissue and homogenized with a Polytron. The supernatant was collected, evaporated to dryness and reconstituted in buffer.
Intraprostatic and intramuscular concentrations of the compounds were also determined by LC-MS/MS.

[4] = tested on: castrated (CX) immature male rats; assay: Systemic androgenic (agonistic) activity in orchidectomized (CX) immature male rats; type: in vivo, rat; conditions: for CX Agonistic activity % Stimulation Bulbo / CX Agonistic activity % Stimulation SV / CX Agonistic activity % Stimulation Prostate: 0.1 mg/rat/po, 7 days; for CX Agonistic activity % Stimulation Bulbo: bulbocavernosus muscles weight; for CX Agonistic activity % Stimulation SV: seminal vesicles weight; for CX Agonistic activity % Stimulation Prostate: ventral prostate weight
Androgen Receptor = assay: Overall classification (antiandrogen / SARM) in the models studied
[5] = tested on: intact immature male rats; assay: Activity in intact immature male rats; type: in vivo, rat
Procedure: Immature male rats (Crl:CD(SD)Br) 22 to 24-day old weighting 60-80 g at start of treatment were obtained from Charles-River, Inc. (St-Constant, Quebec, Canada) and housed up to 5 per cage in plastic bins in a temperature (23±1° C.)- and light (12 h light/day, lights on at 7 h15)-controlled environment. The rats were fed rodent chow and tap water ad libitum. […] The day following their arrival, the designed animals were orchidectomized (CX) under Isoflurane anesthesia (Study Day 1) via the scrotal route and were then randomly assigned to groups of 3 to 5 animals. At the time of orchidectomy, one silastic implant of dihydrotestosterone (DHT; 1 cm length of pure DHT in silastic tubing having inner and outer diameter of 0.078 and 0.125 inches, respectively), was inserted subcutaneously in the dorsal area of animals assigned to the evaluation of antiandrogenic activity. In the case of intact animal experiments, the orchidectomy and the silastic implant installation are omitted.
Tested compounds were administered orally once daily for 7 days from Study Day 2 to Study Day 8 at doses generally ranging from 0.1 and 0.5 mg/animal. Compounds were either solubilized in dimethylsulfoxide (DMSO, 10% final concentration) and were administered as a solution/suspension in 0.9% NaCl-1% gelatin or were administered as suspensions in 0.4% aqueous methylcellulose. Animals of the control groups received the corresponding vehicle alone during the 7-day period. Some animals were treated with the antiandrogen Flutamide or Casodex as reference. The animals under isoflurane anesthesia were killed by cervical dislocation on day 9 of the study, approximately 24 h after the last dosing. The ventral prostate, seminal vesicles and bulbocavernosus muscles were rapidly dissected and weighed.
For calculations with intact animals, control DHT is replaced by control intact and the % stimulation is subtracted by 100%. W is the weight of the prostate, seminal vesicles or bulbocavernosus muscles. Discussion

[6] = Oral absorption, Experiment 1: plasma levels after single oral 20 mg EM-9150/kg in intact male rats (LC-MS/MS); type: in vivo, rat; conditions: metabolite after oral EM-9150
Procedure: Intact 6 week-old male rats (Crl:CD(SD)) weighing 150-205 g were obtained from Charles-River Canada Inc. (St-Constant, Quebec, Canada) and housed up to 3 per cage in plastic bins in a temperature (19° C. to 25° C.)- and light (12 h light/day)-controlled environment. They were acclimatized to laboratory conditions for 2 weeks prior to the pharmacokinetic (PK) study. The rats were fed rodent chow (PMI Nutrition International Certified Rodent Chow No. 5CR4 (14% protein)) and tap water ad libitum. Animals were weighing 165-200 g at the time of dosing.
Blood samples (˜0.4 mL/timepoint/rat) were collected by jugular venipuncture at 0.5, 1, 2, 3.5, 7 and 24 h post-dosing from 3 animals/timepoint. Blood samples were put into tubes containing EDTA(K3) as anticoagulant and centrifuged at 4° C. for 10 min at 2700 rpm. The resulting plasma was separated and transferred to 2 polypropylene tubes, frozen immediately over dry ice and kept in a freezer set to maintain −80° C. until analysis.

[7] = tested on: castrated (CX) immature male rats; assay: Systemic androgenic (agonistic) activity in orchidectomized (CX) immature male rats; type: in vivo; conditions: 0.1 mg/rat, s.c. (subcutaneous)
[8] = immature castrated rat, oral 7 days

Rat Androgen Receptor, sequence (P15207 whole entry, looked up): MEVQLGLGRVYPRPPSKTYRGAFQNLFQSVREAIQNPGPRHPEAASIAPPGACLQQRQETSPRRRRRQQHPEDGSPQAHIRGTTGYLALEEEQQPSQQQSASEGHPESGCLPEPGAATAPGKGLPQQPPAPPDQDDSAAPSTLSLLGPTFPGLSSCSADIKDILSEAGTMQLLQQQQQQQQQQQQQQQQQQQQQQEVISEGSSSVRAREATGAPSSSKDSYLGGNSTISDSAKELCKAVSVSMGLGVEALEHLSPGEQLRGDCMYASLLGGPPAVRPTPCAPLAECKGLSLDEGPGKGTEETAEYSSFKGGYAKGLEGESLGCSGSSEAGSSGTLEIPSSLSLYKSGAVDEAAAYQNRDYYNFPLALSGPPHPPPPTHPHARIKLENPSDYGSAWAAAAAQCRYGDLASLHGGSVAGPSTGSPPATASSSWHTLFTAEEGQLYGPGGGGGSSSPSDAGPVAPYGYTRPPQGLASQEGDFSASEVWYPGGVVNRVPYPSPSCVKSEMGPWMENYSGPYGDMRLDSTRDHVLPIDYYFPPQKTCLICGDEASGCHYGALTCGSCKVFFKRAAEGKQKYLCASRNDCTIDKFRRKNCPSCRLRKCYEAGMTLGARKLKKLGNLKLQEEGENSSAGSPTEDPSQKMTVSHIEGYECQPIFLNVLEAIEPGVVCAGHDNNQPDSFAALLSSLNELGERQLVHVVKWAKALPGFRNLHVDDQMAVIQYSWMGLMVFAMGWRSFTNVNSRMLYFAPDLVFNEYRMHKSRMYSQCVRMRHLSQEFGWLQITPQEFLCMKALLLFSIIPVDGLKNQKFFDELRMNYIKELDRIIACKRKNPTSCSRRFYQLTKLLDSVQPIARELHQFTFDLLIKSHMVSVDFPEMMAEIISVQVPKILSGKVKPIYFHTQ
Human Androgen Receptor, sequence (P10275 whole entry): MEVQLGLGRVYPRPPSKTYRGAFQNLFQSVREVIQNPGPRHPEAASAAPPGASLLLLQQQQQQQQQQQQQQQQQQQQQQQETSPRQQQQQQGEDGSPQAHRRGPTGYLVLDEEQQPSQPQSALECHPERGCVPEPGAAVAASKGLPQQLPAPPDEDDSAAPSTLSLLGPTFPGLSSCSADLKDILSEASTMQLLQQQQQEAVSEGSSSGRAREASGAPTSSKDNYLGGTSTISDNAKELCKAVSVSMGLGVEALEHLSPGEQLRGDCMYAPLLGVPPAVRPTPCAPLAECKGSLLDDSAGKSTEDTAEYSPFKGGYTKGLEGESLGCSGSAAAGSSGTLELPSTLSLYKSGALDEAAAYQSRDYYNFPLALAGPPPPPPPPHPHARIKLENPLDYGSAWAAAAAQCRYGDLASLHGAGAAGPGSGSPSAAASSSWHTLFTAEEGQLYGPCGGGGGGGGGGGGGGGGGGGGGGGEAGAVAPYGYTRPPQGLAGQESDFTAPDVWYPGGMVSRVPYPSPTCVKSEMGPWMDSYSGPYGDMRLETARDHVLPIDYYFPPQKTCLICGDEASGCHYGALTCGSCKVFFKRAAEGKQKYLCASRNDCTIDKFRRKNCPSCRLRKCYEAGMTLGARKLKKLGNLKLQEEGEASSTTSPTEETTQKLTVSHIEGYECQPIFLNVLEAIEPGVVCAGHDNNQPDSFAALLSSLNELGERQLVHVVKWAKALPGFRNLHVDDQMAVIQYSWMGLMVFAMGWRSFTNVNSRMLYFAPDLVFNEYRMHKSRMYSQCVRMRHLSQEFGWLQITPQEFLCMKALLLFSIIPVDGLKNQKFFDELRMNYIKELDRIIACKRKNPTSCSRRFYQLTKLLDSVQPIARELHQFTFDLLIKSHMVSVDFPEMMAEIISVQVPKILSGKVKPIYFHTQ

For `CC1(C)C(=O)N(c2ccc(C#N)c(Cl)c2)C(=O)N1CCCOc1ccc(-c2cc[n+]([O-])cc2)cc1Cl` [EM-9156], the “times more potent than bicalutamide to displace R1881 from the human AR” value (Human Androgen Receptor; versus bicalutamide) was 57 times, the “Rat Androgen Receptor Binding RBA (%) R1881 = 100” value (Rat Androgen Receptor) was 5.3% and the “times more potent than OH-flutamide in the rat AR assay” value (Rat Androgen Receptor; versus OH-flutamide) was 53 times. For the same compound, the “times more potent than bicalutamide in the rat AR assay” value (Rat Androgen Receptor; versus bicalutamide) was 27 times, the “stimulation at 10^−7M on basal Shionogi cell proliferation (in words)” value ([1]; basal (no DHT), 10^−7M) was “absence of stimulation” and the inhibition at 0.1 µM ([2]; Homo sapiens, LNCaP, read-out: LNCaP Cells Antiandrogenic activity (PSA) % inhibition at 10^−7M, R1881-stimulated, 10^−7M of compound) was roughly 50%. The “times more potent than bicalutamide in blocking R1881-stimulated PSA secretion” value ([2]; LNCaP, versus bicalutamide) was 9.2 times and 10 times, the “stimulation at 10^−7M of basal PSA levels in LNCaP cells (in words)” value ([2]; basal (no R1881), 10^−7M) was “absence of stimulation” and the concentration at 7 h ([3]; bulbocavernosus muscles, read-out: intramuscular concentration) was 12.7 ng/g. For the same compound, the concentration at 7 h ([3]; plasma, read-out: plasma concentration) was 22.3 ng/mL, the concentration at 7 h ([3]; ventral prostate, read-out: intraprostatic concentration) was 19.3 ng/g and the “CX Agonistic activity % Stimulation Bulbo” value [4] was 5%. For the same compound, the “CX Agonistic activity % Stimulation SV” value [4] was 0%, the “CX Agonistic activity % Stimulation Prostate” value [4] was 1% and the “agonistic activity on ventral prostate weight (in words)” value ([4]; daily oral dosing for 7 days, immature castrated rat) was “no agonistic activity”. The “classification as antiandrogen or SARM (in words)” value (from here on “classification”) (Androgen Receptor) was “antiandrogens”.
With `Cc1c(N2C(=O)N(CCCOc3ccc(-c4ccncc4)cc3Cl)C(C)(C)C2=O)ccc(C#N)c1Cl` [EM-9251] the “Human Androgen Receptor Binding RBA (%) R1881 = 100” value (Human Androgen Receptor) was 253%, the “times more potent than OH-flutamide on the human AR (RBA ratio)” value (Human Androgen Receptor; versus hydroxyflutamide) was 1200 times and the IC50 [1] was 67.7 nM. For the same compound, the “% of stimulation at 10^−7M on basal Shionogi cells” value ([1]; basal (no DHT), 10^−7M) was 38%, the “CX Agonistic activity % Stimulation Bulbo” value [4] was 119±24% and 119 ± 24 (n = 2) % and the “CX Agonistic activity % Stimulation SV” value [4] was 27 ± 1 (n = 2) %. For the same compound, the “CX Agonistic activity % Stimulation Prostate” value [4] was 41 ± 2 (n = 2) %, the “activity on the bulbocavernosus muscles (in words)” value [4, 8] was “agonistic activity” and the “activity on the prostate and seminal vesicles (in words)” value [4, 8] was “mixed agonistic-antagonistic activity”. The “activity on the bulbocavernosus muscles (in words)” value ([5]; immature intact rat) was “agonistic activity”, the “activity on the prostate and seminal vesicles (in words)” value ([5]; immature intact rat) was “antagonistic activity” and the “inhibition of intact rat prostate” value ([5]; intact immature rat, 7 days) was 25±4%. For the same compound, the “inhibition of intact rat seminal vesicles” value ([5]; intact immature rat, 7 days) was 35±7%, the “stimulation of the bulbocavernosus muscles in intact rat” value ([5]; intact immature rat, 7 days) was 77±6% and the “classification” value (Androgen Receptor) was “selective androgen receptor modulators”.
In the case of `CC1(C)NC(=O)N(c2ccc(C#N)c(Cl)c2)C1=O` [EM-9260], the “Human Androgen Receptor Binding RBA (%) R1881 = 100” value (Human Androgen Receptor) is reported as roughly 0.1%, the IC50 [1] is reported as roughly 100 nM and the “share of the plasma exposure of EM-9150” value [6] is reported as “approximately 90%”. For the same compound, the “CX Agonistic activity % Stimulation Bulbo” value [4] was 4%, the “CX Agonistic activity % Stimulation SV” value [4] was 2% and the “CX Agonistic activity % Stimulation Prostate” value [4] was 0%. The “classification” value (Androgen Receptor) was “antiandrogens”.
With `C[C@]12CC[C@H]3[C@@H](CCC4=CC(=O)CC[C@@]43C)[C@@H]1CC[C@@H]2O` [Testosterone] the “CX Agonistic activity % Stimulation Bulbo” value [7] was 171% and the “CX Agonistic activity % Stimulation Prostate” value [7] was 99%.
